# ChEMBL document CHEMBL1158724, “Ipomoeassins A-E, cytotoxic macrocyclic glycoresins from the leaves of Ipomoea squamosa from the Suriname rainforest” (J Nat Prod, 2005)
# System: A2780
# Test: Cytotoxicity against human A2780 cells
# Assay type: functional, cell-based
smiles,measurement,value
C/C=C(\C)C(=O)O[C@@H]1[C@@H](O)[C@@H]2O[C@H]3[C@H](O[C@@H](CCC)CCCCCCC(=O)CCC(=O)OC[C@@H](O2)[C@H]1OC(=O)/C=C/c1ccccc1)O[C@H](C)[C@H](O)[C@@H]3O [IPOMOEASSIN B],IC50,0.4 µM
C/C=C(\C)C(=O)O[C@@H]1[C@@H](OC(C)=O)[C@@H]2O[C@H]3[C@H](O[C@@H](CCC)CCCCCCC(=O)CCC(=O)OC[C@@H](O2)[C@H]1OC(=O)/C=C/c1ccccc1)O[C@H](C)[C@H](OC(C)=O)[C@@H]3OC(C)=O,IC50,15.8 µM
C/C=C(\C)C(=O)O[C@@H]1[C@@H](O)[C@@H]2O[C@H]3[C@H](O[C@@H](CCC)CCCCC[C@H](OC(C)=O)C(=O)CCC(=O)OC[C@@H](O2)[C@H]1OC(=O)/C=C/c1ccccc1)O[C@H](C)[C@H](O)[C@@H]3O [IPOMOEASSIN E],IC50,3.3 µM
C/C=C(\C)C(=O)O[C@@H]1[C@@H](O)[C@@H]2O[C@H]3[C@H](O[C@@H](CCC)CCCCCCC(=O)CCC(=O)OC[C@@H](O2)[C@H]1OC(=O)/C=C/c1ccccc1)O[C@H](C)[C@H](OC(C)=O)[C@@H]3O [IPOMOEASSIN A],IC50,0.5 µM
C/C=C(\C)C(=O)O[C@@H]1[C@@H](O)[C@@H]2O[C@H]3[C@H](O[C@@H](CCC)CCCCC[C@H](OC(C)=O)C(=O)CCC(=O)OC[C@@H](O2)[C@H]1OC(=O)/C=C/c1ccccc1)O[C@H](C)[C@H](OC(C)=O)[C@@H]3O [IPOMOEASSIN D],IC50,0.035 µM
C/C=C(\C)C(=O)O[C@@H]1[C@@H](O)[C@@H]2O[C@H]3[C@H](O[C@@H](CCC)CCCCC[C@H](O)C(=O)CCC(=O)OC[C@@H](O2)[C@H]1OC(=O)/C=C/c1ccccc1)O[C@H](C)[C@H](OC(C)=O)[C@@H]3O [IPOMOEASSIN C],IC50,2.9 µM
C/C=C(\C)C(=O)O[C@@H]1[C@@H](OC(C)=O)[C@@H]2O[C@H]3[C@H](O[C@@H](CCC)CCCCC[C@H](OC(C)=O)C(=O)CCC(=O)OC[C@@H](O2)[C@H]1OC(=O)/C=C/c1ccccc1)O[C@H](C)[C@H](OC(C)=O)[C@@H]3OC(C)=O,IC50,19.1 µM
